{
  "source": "patent US20060115458A1",
  "about": "“Material for repairing biological tissues, product for repairing biological tissues, and method of manufacturing material for repairing biological tissues” (OLYMPUS CORPORATION, priority 2004, published 2006)",
  "key": {"[1]": {"tested_on": "normal human osteoblast NHOst", "assay": "Proliferation rate of osteoblasts cultured with metal salts (TetraColor ONE)", "type": "cell-based", "settings": "as concentration became higher; 2 weeks culture; control group = 100%; FIG. 1", "procedure": "(§1) As a medium, α-MEM medium containing β-sodium glycerophosphate and fetal calf serum was used.\n(§2) The cell culturing method was such that about 1×10^4 osteoblasts were seeded in each well in a collagen type I coated 24 well microplate. Then after 24 hours the product was replaced with 1 ml of medium containing a prescribed concentration of metal salts, after which it was further replaced with a medium containing the same concentration of metal salts three times per week, and the culturing was performed for 2 weeks.\nThe proliferation rate was measured as follows. 1 ml of medium containing 20 μl/ml of living cell measuring reagent, TetraColor ONE (Seikagaku Corporation) was added into each well. After 2 hours of culturing, the absorbency at 450 nm (control wavelength was 600 nm) was measured. The proliferation rate of the respective experimental groups was obtained assuming that the absorbancy of the control group was 100%."}, "[2]": {"tested_on": "normal human osteoblast NHOst", "assay": "Differentiation rate of osteoblasts cultured with metal salts (calcium content per well)", "type": "cell-based", "settings": "as concentration became higher; 2 weeks culture; calcium content of control group = 100%; FIG. 2", "procedure": "as §1, §2\nThe differentiation rate was measured as follows. 1 ml of 0.1N hydrochloric acid was added into each well and left at room temperature for 15 hours to obtain the hydrochloric acid extract of each well. Using calcium C-Test Wako (Wako Pure Chemical Industries, Ltd.), 10 μl of hydrochloric acid extract was added with 1 ml of 0.88 M monoethanolamine buffer (pH 11.0), then 100 μl of 0.63 mM ortho-cresolphthalein complexone and 100 μl of 69 mM 8-quinolinol. After 15 minutes of reaction at room temperature, the absorbancy at 570 nm was measured to determine the calcium content per well. The differentiation rate of the respective experimental groups was obtained assuming that the calcium content of the control group was 100%."}},
  "data": [
    {"smiles": "[Cl][Nb]([Cl])([Cl])([Cl])[Cl]", "note": "[niobium pentachloride]", "values": [
      {"measurement": "proliferation rate of osteoblasts", "setting": "[1]", "result": "increased the proliferation rate"},
      {"measurement": "differentiation rate of osteoblasts", "setting": "[2]", "result": "increased the differentiation rate"}
    ]}
  ]
}
